The text below walks through data of patent US20220267310A1, “QUINAZOLINE AND CINNOLINE DERIVATIVES AS DNA-PK INHIBITOR” (MEDSHINE DISCOVERY INC., priority 2019, published 2022).

In series [1] the target is T1, DNA-PK (h) (Homo sapiens, UniProt P78527).
T1 construct: Eurofins Pharma Discovery Service (contract assay)
Briefly: DNA-PK kinase inhibitory activity (HTRF, Eurofins). It is filed as biochemical. Conditions: ATP: 10 μM. The procedure: (§1) This experiment was tested at Eurofins Pharma Discovery Service, Reaction Biology Corp. (RBC)
(§2) […] DNA-PK: Mg/ATP; GST-cMyc-p53; EDTA; Ser15 antibody; ATP: 10 μM; biotinylated phosphatidylinositol-3,4,5-triphosphate; GST label GRP1 PH domain; streptavidin and phycocyanin; europium-labelled monoclonal antibody against GST.
DNA-PK (h) was incubated in a determination buffer containing 50 nM GST-cMyc-p53 and Mg/ATP (density as required). The reaction was initiated by adding a mixture of Mg/ATP. After incubating at room temperature for 30 min, a termination solution containing EDTA was added to terminate the reaction. Finally, a detection buffer (containing labeled anti-GST monoclonal antibody and europium-labeled anti-phosphate Ser15 antibody against phosphorylated p53) was added. Then, the board was read in time-resolved fluorescence mode, and a Homogeneous Time Resolved Fluorescence (HTRF) signal was measured according to the formula HTRF=10000×(Em665 nm/Em620 nm).
On the technique in general: In TR-FRET formats the signal depends on donor and acceptor labels being close together.

Series [2] concerns human small cell lung cancer NCI-H69 cell subcutaneous xenograft tumor. The series can be described thus: NCI-H69 subcutaneous xenograft, combination with etoposide, 22-day experiment (Table 7). It is filed as in vivo, BALB/c nude mice. Here is the method:
Experiment example 3: in vivo pharmacodynamics of human small cell lung cancer NCI-H69 cell subcutaneous xenograft tumor BALB/c nude mouse model:
Experimental animals: Female BALB/c nude mice, 6-8 weeks old, weighing 15-22 grams; supplier: Shanghai Linchang Biotechnology Co., LTD. (Linchang, Shanghai)
Human small cell lung cancer NCI-H69 cells (ATCC, item number: HTB-119 and ECACC-95111733) were cultured in vitro in a culture condition of RPMI-1640 medium with 10% fetal bovine serum, 100 U/mL penicillin and 100 μg/mL streptomycin, incubated at 37° C. and 5% CO2. Conventional passage was carried out twice a week. When cell saturation was 80%-90% and the number reaches the requirement, cells were collected, counted and inoculated.
0.2 mL (10×10^6) NCI-H69 cells (with matrix glue, and volume ratio of 1:1) were subcutaneously inoculated into a right back of each mouse, and group administration was initiated when the average tumor volume reaches about 110-120 mm^3.
The tested compound was prepared as a 5 mg/mL clarified solution with 10% DMSO+50% polyethylene glycol 400+40% water as the solvent.
The experimental indicators refers to study whether tumor growth was inhibited, delayed, or cured. Tumor diameter was measured twice a week with a vernier caliper. The calculation formula of the tumor volume was V=0.5a×b^2, and a and b represent the long diameter and short diameter of the tumor, respectively.
The antitumor efficacy of the compound was evaluated by TGI (%) or relative tumor proliferation rate T/C (%). TGI (%) reflects the tumor growth inhibition rate. The calculation of TGI (%): TGI (%)=[1−(average tumor volume at the end of administration of a certain treatment group−average tumor volume at the beginning of administration of the treatment group)/(average tumor volume at the end of treatment in solvent control group−average tumor volume at the beginning of treatment in solvent control group)]×control group.
Relative tumor proliferation rate T/C (%): the calculation formula was as follows: T/C %=[…] TRTV/CRTV group (TRTV: treatment group RTV; CRTV: negative control group RTV). According to results of tumor measurement, Relative Tumor Volume (RTV) was calculated by the formula RTV=Vt/V0, where V0 was the average tumor volume measured in group administration (i.e., d0), and Vt was the average tumor volume measured in a certain single measurement. TRTV and CRTV collect data on the same day.
Statistic analysis includes an average value and a standard error (SEM) of tumor volume at each time point for each group. […] If there was no significant difference in F value, Dunnet (2-sided) method was applied to analysis. All data were analyzed using SPSS 17.0. P<0.05 was considered as having a significant difference.

Series [3] can be described thus: Pharmacokinetic evaluation in mice, IV and PO. It is filed as in vivo, Balb/c female mice. Here is the method:
The tested compound was mixed with 10% DMSO/50% PEG400/40% water, vortexized and ultrasonic to prepare 0.2 mg/mL or 0.4 mg/ml, approximately clarified solution, which was filtered by a microporous membrane and then standby. Balb/c female mice of 18-20 g were selected and given the candidate compound solution intravenously at a dose of 1 or 2 mg/kg. The tested compound was mixed with 10% DMSO/50% PEG400/40% water, vortexized and ultrasonic to prepare 0.2 mg/mL or 1 mg/mL approximately clarified solution, which was filtered by a microporous membrane and then standby. Balb/c female mice of 18 to 20 g were selected and given orally the candidate compound solution at a dose of 2 or 10 mg/kg. Whole blood was collected for a certain period of time, and plasma was prepared. Drug concentration was analyzed by LC-MS/MS method, and pharmacokinetic parameters were calculated by Phoenix WinNonlin software (US Pharsight company).
C0: instantaneous concentration required after intravenous injection; Cmax: the highest blood concentration after administration; Tmax: time required to reach peak concentration after administration; T1/2: the time required for blood drug concentration to decrease by half; Vdss: apparent volume of distribution, which refers to the ratio constant of drug dosage to blood concentration when a drug reaches dynamic equilibrium in vivo. Cl: clearance rate, referring to drug apparent distribution volume number removed from the body per unit time; Tlast: time of last detection point: AUC0-last: an area under a drug duration curve, referring to an area surrounded by the blood drug concentration curve on the time axis; Bioavailability: a measure of the rate and extent of drug absorption into the blood circulation, which was an important index to evaluate drug absorption degree.

For series [4], the target named is T2, PI3K (p110α/p85α) (Homo sapiens, UniProt P42336).
T2 construct: Eurofins Pharma Discovery Service (contract assay)
T2 sequence (P42336 whole entry, species assumed): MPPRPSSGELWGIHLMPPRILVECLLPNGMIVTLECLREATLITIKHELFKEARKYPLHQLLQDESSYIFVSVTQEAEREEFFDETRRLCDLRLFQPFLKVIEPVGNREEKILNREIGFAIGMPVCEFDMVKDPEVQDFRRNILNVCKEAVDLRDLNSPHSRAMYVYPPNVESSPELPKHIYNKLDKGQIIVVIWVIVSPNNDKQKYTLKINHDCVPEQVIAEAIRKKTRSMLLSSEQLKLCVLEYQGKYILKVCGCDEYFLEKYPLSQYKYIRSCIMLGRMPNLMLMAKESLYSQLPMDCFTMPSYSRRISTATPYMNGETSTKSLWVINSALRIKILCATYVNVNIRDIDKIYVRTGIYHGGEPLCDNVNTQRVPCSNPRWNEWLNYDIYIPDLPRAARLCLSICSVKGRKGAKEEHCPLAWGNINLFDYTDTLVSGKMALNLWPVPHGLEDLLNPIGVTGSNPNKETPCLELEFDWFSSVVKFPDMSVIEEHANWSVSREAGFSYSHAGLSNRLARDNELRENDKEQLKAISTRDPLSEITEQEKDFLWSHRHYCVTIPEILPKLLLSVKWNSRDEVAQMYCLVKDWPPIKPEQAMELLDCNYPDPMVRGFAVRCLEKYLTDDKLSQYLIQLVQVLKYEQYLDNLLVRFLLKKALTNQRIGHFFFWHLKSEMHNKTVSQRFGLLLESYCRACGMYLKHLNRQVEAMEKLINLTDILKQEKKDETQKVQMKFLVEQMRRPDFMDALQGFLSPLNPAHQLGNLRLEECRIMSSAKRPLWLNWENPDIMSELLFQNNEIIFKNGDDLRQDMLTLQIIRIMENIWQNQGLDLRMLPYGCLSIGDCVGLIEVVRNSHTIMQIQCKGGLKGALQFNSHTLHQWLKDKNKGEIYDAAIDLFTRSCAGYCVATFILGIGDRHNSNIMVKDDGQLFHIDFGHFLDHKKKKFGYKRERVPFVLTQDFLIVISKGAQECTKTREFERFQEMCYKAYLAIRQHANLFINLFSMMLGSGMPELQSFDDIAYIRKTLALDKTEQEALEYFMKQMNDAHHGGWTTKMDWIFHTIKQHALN
T2 sequence (P27986 whole entry partner, species assumed): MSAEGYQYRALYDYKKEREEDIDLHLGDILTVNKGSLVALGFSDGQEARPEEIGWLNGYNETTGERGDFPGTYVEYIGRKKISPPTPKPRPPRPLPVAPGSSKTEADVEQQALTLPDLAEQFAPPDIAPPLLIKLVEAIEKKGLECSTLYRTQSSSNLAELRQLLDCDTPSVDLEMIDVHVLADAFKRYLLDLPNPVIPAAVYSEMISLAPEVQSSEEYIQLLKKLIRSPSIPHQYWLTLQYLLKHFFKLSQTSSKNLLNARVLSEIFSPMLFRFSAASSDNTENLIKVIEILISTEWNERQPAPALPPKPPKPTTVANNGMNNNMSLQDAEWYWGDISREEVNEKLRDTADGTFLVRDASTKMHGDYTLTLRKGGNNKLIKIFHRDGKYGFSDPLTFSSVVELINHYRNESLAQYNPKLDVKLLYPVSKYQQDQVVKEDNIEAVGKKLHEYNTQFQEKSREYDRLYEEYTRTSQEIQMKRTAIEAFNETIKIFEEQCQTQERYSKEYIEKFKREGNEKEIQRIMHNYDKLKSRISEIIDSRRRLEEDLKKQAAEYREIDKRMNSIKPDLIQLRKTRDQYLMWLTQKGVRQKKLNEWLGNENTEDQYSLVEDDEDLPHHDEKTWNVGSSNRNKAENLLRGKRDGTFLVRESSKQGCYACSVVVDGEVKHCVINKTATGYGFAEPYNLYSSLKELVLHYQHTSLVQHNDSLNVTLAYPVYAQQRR
The series can be described thus: PI3K (p110α/p85α) kinase inhibitory activity (HTRF). It is filed as biochemical. Here is the method: as §1, §2
PI3K (p110α/p85α) was incubated in a determination buffer containing phosphatidylinositol 4,5-diphosphate and Mg/ATP (density as required). The reaction was initiated by adding an ATP solution. After incubating at room temperature for 30 min, a termination solution containing EDTA and biotinylated phosphatidylinositol-3,4,5-triphosphate was added to terminate the reaction. Finally, a detection buffer (containing labeled anti-GST monoclonal antibody, PH domain of GRP1 with GST label and streptavidin and phycyanin and […]) was added. Then, the board was read in time-resolved fluorescence mode, and an HTRF signal was measured according to the formula HTRF=10000×(Em665 nm/Em620 nm).

Series [5] addresses T3, PI3K (p110σ/p85α) (Homo sapiens, UniProt O00329).
T3 construct: Eurofins Pharma Discovery Service (contract assay)
The series can be described thus: PI3K (p110σ/p85α) kinase inhibitory activity (HTRF). It is filed as biochemical.

Setting [6] is: 40 mg/kg, PO, QD + etoposide 10 mg/kg, IP, 3-day administration, 4-day withdrawal, 22nd day.
Setting [7] is: 40 mg/kg, PO, QD + etoposide 10 mg/kg, IP, 3-day administration, 4-day withdrawal, average ± SEM.

Values joined by “and” are separate entries in the source; they are usually repeats but may differ in a detail not shown here. Identical values can stand only once.

T3 sequence (O00329 whole entry): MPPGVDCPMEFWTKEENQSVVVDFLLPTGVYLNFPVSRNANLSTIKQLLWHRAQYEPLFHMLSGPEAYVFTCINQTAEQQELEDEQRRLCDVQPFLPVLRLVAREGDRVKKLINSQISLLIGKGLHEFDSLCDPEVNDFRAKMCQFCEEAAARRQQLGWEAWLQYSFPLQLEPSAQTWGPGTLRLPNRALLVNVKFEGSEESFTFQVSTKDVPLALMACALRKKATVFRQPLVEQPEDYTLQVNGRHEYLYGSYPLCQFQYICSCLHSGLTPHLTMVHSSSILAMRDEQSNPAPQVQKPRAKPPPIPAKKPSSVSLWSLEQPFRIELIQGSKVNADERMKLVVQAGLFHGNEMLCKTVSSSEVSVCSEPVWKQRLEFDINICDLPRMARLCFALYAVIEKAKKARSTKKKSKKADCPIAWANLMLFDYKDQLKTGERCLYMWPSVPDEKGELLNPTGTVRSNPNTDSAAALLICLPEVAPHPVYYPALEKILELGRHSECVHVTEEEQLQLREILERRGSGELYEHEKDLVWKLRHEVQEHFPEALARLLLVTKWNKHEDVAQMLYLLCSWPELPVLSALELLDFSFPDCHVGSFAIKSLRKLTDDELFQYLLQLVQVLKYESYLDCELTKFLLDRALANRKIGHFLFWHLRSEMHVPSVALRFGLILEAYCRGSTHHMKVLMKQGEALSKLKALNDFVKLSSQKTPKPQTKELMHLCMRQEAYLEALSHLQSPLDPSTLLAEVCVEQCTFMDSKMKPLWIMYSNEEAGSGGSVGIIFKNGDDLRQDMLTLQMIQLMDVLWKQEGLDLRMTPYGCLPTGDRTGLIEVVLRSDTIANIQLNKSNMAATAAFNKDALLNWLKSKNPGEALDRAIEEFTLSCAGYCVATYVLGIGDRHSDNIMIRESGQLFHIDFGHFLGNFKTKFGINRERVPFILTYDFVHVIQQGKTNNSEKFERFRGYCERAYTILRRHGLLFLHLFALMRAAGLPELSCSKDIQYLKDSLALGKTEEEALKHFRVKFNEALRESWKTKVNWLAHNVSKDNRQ
T3 sequence (P27986 whole entry partner): as the sequence (P27986 whole entry partner, species assumed) above

The term IC50 denotes the concentration needed to halve the response being measured. Usually Cmax stands for the peak of the concentration-time curve. In general, Tmax refers to the time at which the peak concentration occurs. `COc1ccc(C(O)c2cc(-c3ccnc4cc(N5CCOCC5)ccc34)c(F)cc2Cl)nn1` (single isomer, unassigned) [Embodiment 2] displayed an IC50 in series [1] of 0.5 nM. For the same compound, the Weight changes in series [2] (40 mg/kg group (+ etoposide 10 mg/kg, IP)) is −16.66%. The “RTV (22th day)” value in series [2] (40 mg/kg, PO, QD + etoposide 10 mg/kg, IP, 3-day administration, 4-day withdrawal) was 1.84. In series [2] (setting [6]), the “T/C (%)” value turned out to be 21.37%; the “TGI (%)” value is 89% and 88.96%. Further, in series [2] (setting [7]), the “Tumor volume (mm^3) (0th day)” value turned out to be 119 ± 13 mm^3 and the “Tumor volume (mm^3) (22th day)” value worked out at 219 ± 44 mm^3. In addition, in series [3] (IV(2 mg/kg), mouse plasma), the “AUC0-last” value was determined as 3.354 µM·h, the C0 was found to be 1810 nM, the “Cl” value is listed as 20.3 mL/min/kg and the “T1/2” value is on record as 1.33 h. In addition, in series [3] (IV(2 mg/kg), mouse plasma), the “Tlast” value was 8.00 h and the “Vdss” value came out at 2.25 L/kg. In addition, the “Bioavailability (%)” value in series [3] (PO(10 mg/kg), mouse) was 60.8%. In series [3] (PO(10 mg/kg), mouse plasma), the “AUC0-last” value was found to be 9.073 µM·h, the peak level (Cmax) was 2520 nM, the “T1/2” value came out at 2.47 h and the “Tlast” value was found to be 8.00 h. Further, the “Tmax” value in series [3] (PO(10 mg/kg), mouse plasma) came to 1.00 h. The compound also returned an IC50 in series [4] of 39 nM. In series [5], this compound showed an IC50 of 13 nM.
